Laboratory results reported in patent US4857324A, “Exogenously acidified antacid compositions having cytoprotective properties” (priority 1987, dated 1989).

Experiments:
[1] = test system: gastric acid secretion; settings: in vivo; cited from earlier work
[2] = test system: gastric mucosa; settings: literature; cited from earlier work
[3] = test system: ethanol induced ulcer; settings: Robert et al 1984; cited from earlier work
[4] = test system: ethanol induced gastric ulcers in the rat; assay: ethanol-induced lesion assay (cytoprotective activity) in rats; format: in vivo, rat (male Sprague-Dawley); settings: for % INHIBITION: Table 4
Description: The cytoprotective activity of a compound may be observed in both animals and man by noting the increase resistance of the gastrointestinal mucosa to the noxious effects of strong irritants, for example, the ulcerogenic effects of aspirin or indomethacin.
The ethanol-induced lesion assay is a standard test for cytoprotective activity and is described in an article by A. Robert et al entitled "Cytoprotection By Prostaglandins in Rats" published in Gastroenterology 77:433-443, 1979.
The ethanol-induced lesion assay was used to measure the cytoprotective ability of commercial antacids. Male Sprague-Dawley rats (supplier, Charles River, Willmington, Mass.) weighing between 120-150 g were used. The rats were fasted for 24 hr prior to use (water ad libitum). Before dosing, the animals were placed two per cage and denied water.
Animals were orally, i.e. intragastrically pretreated, one hour before ethanol administration with either RIOPAN Extra Strength suspension, MAALOX suspension, PGE2, or vehicle. One hour after ethanol administration, the rats were sacrificed by CO2 asphyxiation. The stomachs were removed and kept moist with saline until the lesions were scored. Ulcers were scored with the investigator unaware of the treatment groups (single blind). Ulcers were graded according to the following scale: […]
GRADE (Approximate length of lesion)
Absolute ethanol was given orally, 1 ml/rat. RIOPAN Extra Strength, 1080 mg magaldrate per 5 ml (lot 3RM4), and MAALOX, 200 mg Mg(OH)2 +225 mg Al(OH)3 per 5 ml (lot 64700), were administered orally as commercially available suspensions. The dose volume administered was based on the ED50 (ml of antacid/kg, see Table 1).
The dose volume of acidified antacid was adjusted for the volume of 6 N HCl added to the suspension. PGE2 was stored in 100% ethanol and diluted with normal saline before use.
Magaldrate of Example 1 and MAALOX of Example 2 were prepared as described above. The dose volume of nonbuffering antacid was adjusted for the volume of 6 N HCl added to the suspension during preparation. PGE2 was stored in 100% ethanol and diluted with normal saline before use.
The mean ulcer score of each treatment group was compared to the control group and expressed as the percent inhibition of ulcer formation.
The cytoprotective ED50 before and after acidification for the magaldrate of Example 1, referred to in this example as RIOPAN Extra Strength, and for MAALOX of Example 2 was calculated by standard regression analysis of the dose-response data. Confidence limits of 95% were calculated using the statistical differential method.
The spray dried powders of Examples 8 through 15 were tested for cytoprotective activity in the ethanol-induced lesion assay as described in Example 7.
The respective powders were admixed with sufficient water to form a liquid and the animals were dosed 400 milligrams of powder per kilo of body weight […]. in the test.
The experiments were performed using ten rats for each test composition and using the in vivo test procedure described in Example 7. The dose of acidified Extra Strength RIOPAN was selected for the test at 0.46 milliliters per kilogram of rat body weight. Approximately 4.6 times this amount (8 times on a mg/kg basis) was selected for the dose of commercial Extra Strength RIOPAN. Approximately 30 times this amount was selected for each dose of the Wenger et al solutions.
Two experiments were performed using ten rats for each test composition and again using the in vivo test procedure described in Example 7. In these experiments the dose in milliliters per kilogram of rat body weight was equal for each test composition.

[5] = per 5 ml of suspension or liquid; cited from earlier work

In the case of `CCCCC[C@H](O)/C=C/[C@@H]1[C@@H](C/C=C\CCCC(=O)O)[C@@H](O)C[C@H]1O` [prostaglandin F2], the “inhibition of gastric acid secretion” value [1] is given as “does not inhibit gastric acid secretion” and the “gastric cytoprotection (in words)” value [2] is given as “does induce gastric cytoprotection”.
For `CC(C)[N+](C)(CCOC(=O)C1c2ccccc2Oc2ccccc21)C(C)C` [propantheline bromide], the “protection in the ethanol induced ulcer model” value [3] is listed as “do not protect in this model”.
With `[Cl][Al]([Cl])[Cl]` [aluminum chloride] the “cytoprotective activity (in words)” value ([4]; ethanol-induced gastric lesion model) was “does not exhibit such activity”.
For `CN/C(=N/CCSCc1nc[nH]c1C)NC#N` [cimetidine], the “protection in the ethanol induced ulcer model” value [3] is given as “do not protect in this model”.
In the case of `[OH][Al]([OH])[OH]` [Al(OH)3, aluminum hydroxide], the “gastric cytoprotection (in words)” value [2] is listed as “have cytoprotective properties”.
With `CCCCC[C@H](O)/C=C/[C@H]1[C@H](O)CC(=O)[C@@H]1C/C=C\CCCC(=O)O` [PGE2] the “% INHIBITION” value ([4]; dose 25 g/kg p.o. (so in the source)) was 39%, the “% INHIBITION” value ([4]; dose 50 g/kg p.o. (so in the source)) was 63% and the “% INHIBITION” value ([4]; dose 75 g/kg p.o. (so in the source)) was 80%. For the same molecule, the “effect on ethanol induced ulcers (in words)” value ([4]; rat, p.o.) was “inhibited ethanol induced ulcer formation” and the “potency of PGE2 relative to acidified RIOPAN Extra Strength or acidified MAALOX” value ([4]; rat, p.o.) was “approximately 1000 times”.
In the case of `O.O=S(=O)([O-])[O-].O=S(=O)([O-])[O-].[Al+3].[Al+3].[Al+3].[Al+3].[Al+3].[Mg+2].[Mg+2].[Mg+2].[Mg+2].[Mg+2].[Mg+2].[Mg+2].[Mg+2].[Mg+2].[Mg+2].[OH-].[OH-].[OH-].[OH-].[OH-].[OH-].[OH-].[OH-].[OH-].[OH-].[OH-].[OH-].[OH-].[OH-].[OH-].[OH-].[OH-].[OH-].[OH-].[OH-].[OH-].[OH-].[OH-].[OH-].[OH-].[OH-].[OH-].[OH-].[OH-].[OH-].[OH-]` [magaldrate, aluminum magnesium hydroxide sulfate], the “effect on ethanol induced ulcers (in words)” value ([4]; rat, p.o.) is given as “inhibit ethanol induced ulcers in rats” and the “acid neutralized / acid neutralization capacity (ANC)” value [5] is given as 13.5 to 15 mEq.
